Data from patent US6335360B1, “Tripeptidyl peptidase inhibitors” (Institut National de la Sante et de la Recherche Medicale …, priority 1997, dated 2002).
Structures can show the parent of a compound that is named as a salt. Where two headings read alike, the source gives them in different places.

Assays:
[1] = molecular target: T1, membrane TPP II (tripeptidyl peptidase II) (Rattus norvegicus, UniProt Q64560); assay: Inhibition of AAF-Amc hydrolysis by cerebral membranes (inhibition of TPP II); type: biochemical; details: for Ki: rat cerebral cortex membranes; for activity (stated in words): stereoisomers not separated (2(R/S) mixture)
T1 construct: evaluated by measuring the activity of membrane TPP II; from tissue; host or cells: rat cerebral cortex membranes
Method: The potency of the compounds of the invention was evaluated by measuring the activity of membrane TPP II.
Membranes of rat cerebral cortex were obtained by centrifugation (200,000×g min) of a homogenate in 10 volumes of a 50 mM potassium phosphate buffer, pH 7.4.
The centrifugation pellet was carefully washed and taken up in a buffer containing 10% glycerol and 0.1% Brij 35 to obtain a concentration of 25 mg protein/ml.
After 25 minutes of preincubation, incubation is carried out in 0.1 ml of a buffer containing 0.1% Brij 35, […], 25 μg of membrane protein and 50 μm of substrate Ala-Ala-Phe-Amc (AAF-Amc). Liberation of 7-amino4-methylcoumarin (Amc) is evaluated by fluorimetry.

[2] = Table 1, substrate Ala-Ala-Phe-Amc, Ki calculated from 50% inhibition concentration and Km 23 μM, read-out: Ki (nM), Inhibition of AAF-Amc Hydrolysis by Cerebral Membranes
[3] = Table 2, comparative compounds known in the art, substrate AAF-Amc, read-out: Ki (nM), Inhibition of AAF-Amc Hydrolysis by Cerebral Membranes, comparative compound

T1 sequence (Q64560 whole entry): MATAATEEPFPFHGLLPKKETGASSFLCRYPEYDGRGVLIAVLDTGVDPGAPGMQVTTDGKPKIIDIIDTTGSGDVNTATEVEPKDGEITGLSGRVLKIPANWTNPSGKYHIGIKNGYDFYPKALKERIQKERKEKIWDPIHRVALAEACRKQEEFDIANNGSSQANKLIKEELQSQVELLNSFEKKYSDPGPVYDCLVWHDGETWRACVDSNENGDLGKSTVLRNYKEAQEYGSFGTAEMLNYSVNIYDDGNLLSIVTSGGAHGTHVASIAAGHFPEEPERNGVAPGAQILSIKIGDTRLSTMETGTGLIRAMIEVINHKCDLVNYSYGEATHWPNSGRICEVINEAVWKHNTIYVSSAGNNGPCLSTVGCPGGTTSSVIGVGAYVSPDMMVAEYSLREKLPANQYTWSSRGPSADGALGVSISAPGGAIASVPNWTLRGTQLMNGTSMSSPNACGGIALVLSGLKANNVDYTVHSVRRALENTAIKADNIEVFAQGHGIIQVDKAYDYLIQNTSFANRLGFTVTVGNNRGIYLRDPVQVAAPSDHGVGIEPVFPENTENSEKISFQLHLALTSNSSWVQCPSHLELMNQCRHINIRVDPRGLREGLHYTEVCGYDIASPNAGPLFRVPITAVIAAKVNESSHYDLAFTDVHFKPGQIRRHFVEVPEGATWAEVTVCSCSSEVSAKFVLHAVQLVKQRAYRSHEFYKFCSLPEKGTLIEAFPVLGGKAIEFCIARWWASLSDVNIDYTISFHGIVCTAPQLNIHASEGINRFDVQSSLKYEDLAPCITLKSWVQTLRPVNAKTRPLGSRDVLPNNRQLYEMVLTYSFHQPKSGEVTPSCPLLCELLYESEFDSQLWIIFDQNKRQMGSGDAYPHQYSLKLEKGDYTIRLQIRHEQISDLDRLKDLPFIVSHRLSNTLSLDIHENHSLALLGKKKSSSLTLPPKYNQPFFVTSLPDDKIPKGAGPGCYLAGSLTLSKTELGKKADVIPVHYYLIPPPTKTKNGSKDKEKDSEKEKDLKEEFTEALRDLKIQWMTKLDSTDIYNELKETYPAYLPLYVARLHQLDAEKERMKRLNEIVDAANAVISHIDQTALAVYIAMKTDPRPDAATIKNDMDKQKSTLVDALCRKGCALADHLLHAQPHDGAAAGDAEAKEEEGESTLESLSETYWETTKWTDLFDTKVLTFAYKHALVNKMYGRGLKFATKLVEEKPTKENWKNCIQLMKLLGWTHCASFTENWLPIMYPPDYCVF

SMILES	melting point [°C]	Ki [1, 2] [nM]	also measured
CC[C@H](N)C(=O)N1c2ccc(Cl)cc2C[C@H]1C(=O)NCC(F)(F)F.O=C(O)C(F)(F)F [Example 1, 1-(2(S)-aminobutyryl)-5-chloroindoline-2(S)-carboxylic acid (2,2,2-trifluoroethyl)amide trifluoroacetate]	34 to 35	0.4	
CCCCNC(=O)[C@H]1Nc2ccc3ccccc3c2C1C(=O)[C@@H](N)CC.O=C(O)C(F)(F)F (stereo partly shown)	76 to 88		
CC[C@H](N)C(=O)N1c2ccccc2C[C@H]1C(=O)NCC1CC1.O=C(O)C(F)(F)F [Example 4, 1-(2(S)-aminobutyryl)-indoline-2(S)-carboxylic acid N-(cyclopropylmethyl)amide trifluoroacetate]	57 to 74		
CC[C@H](N)C(=O)N1c2cccc(F)c2CC1C(=O)NCC(F)(F)F.O=C(O)C(F)(F)F (mixture of isomers) [Example 8, 1-(2(S)-aminobutyryl)-4-fluoroindoline-2(R/S)-carboxylic acid (2,2,2-trifluoroethyl)amide trifluoroacetate] [listing 1 of 2 here]		0.36	activity (stated in words) [1]: useful activity
CC[C@H](N)C(=O)N1c2cccc(Cl)c2CC1C(=O)NCC(F)(F)F.O=C(O)C(F)(F)F (mixture of isomers) [Example 7, 1-(2(S)-aminobutyryl)-4-chloroindoline-2(R/S)-carboxylic acid (2,2,2-trifluoroethyl)amide trifluoroacetate] [listing 1 of 2 here]	104 to 106		
CC[C@H](N)C(=O)N1c2ccc(OC)c(OC)c2CC1C(=O)NCC(F)(F)F.O=C(O)C(F)(F)F (mixture of isomers)	79 to 87		
CCCCNC(=O)C1Cc2cc(O)ccc2N1C(=O)[C@@H](N)CC (mixture of isomers) [C.C.4, 1-(2(S)-aminobutyryl)-5-hydroxyindoline-2(R/S)-carboxylic acid n-butylamide, reference compound]			Ki [1, 3]: 6.6 nM
CC[C@H](N)C(=O)N1c2ccc(OC(F)(F)F)cc2CC1C(=O)NCC(F)(F)F (mixture of isomers) [Example 10, 1-(2(S)-aminobutyryl)-5-trifluoromethoxyindoline-2(R/S)-carboxylic acid (2,2,2-trifluoroethyl)amide trifluoroacetate]		1.1	
CC[C@H](N)C(=O)N1c2cccc(Cl)c2CC1C(=O)NCC(F)(F)F.O=C(O)C(F)(F)F (mixture of isomers) [Example 7, 1-(2(S)-aminobutyryl)-4-chloroindoline-2(R/S)-carboxylic acid (2,2,2-trifluoroethyl)amide trifluoroacetate] [listing 2 of 2 here]		0.56	activity (stated in words) [1]: useful activity
CCCCNC(=O)C1Cc2cc(OC)ccc2N1C(=O)[C@@H](N)CC (mixture of isomers) [C.C.5, 1-(2(S)-aminobutyryl)-5-methoxyindoline-2(R/S)-carboxylic acid n-butylamide, reference compound]			Ki [1, 3]: 8 nM
CC[C@H](N)C(=O)N1c2ccc(OC)cc2CC1C(=O)NCC(F)(F)F (mixture of isomers) [Example 9, 1-(2(S)-aminobutyryl)-5-methoxyindoline-2(R/S)-carboxylic acid (2,2,2-trifluoroethyl)amide trifluoroacetate]		0.7	
CC[C@H](N)C(=O)N1c2ccc(OC)cc2CC1C(=O)NCC(F)(F)F.O=C(O)C(F)(F)F (mixture of isomers) [Example 9, 1-(2(S)-aminobutyryl)-5-methoxyindoline-2(R/S)-carboxylic acid (2,2,2-trifluoroethyl)amide trifluoroacetate]	63.5 to 66		
CC[C@H](N)C(=O)N1c2ccc3c(c2CC1C(=O)NCC(F)(F)F)OCO3.O=C(O)C(F)(F)F (mixture of isomers)	89 to 98		
CC[C@H](N)C(=O)N1c2ccc(Cl)c(Cl)c2CC1C(=O)NCC(F)(F)F.O=C(O)C(F)(F)F (mixture of isomers)	68 to 78		
CC[C@H](N)C(=O)N1c2ccccc2C[C@H]1C(=O)NCCSC.O=C(O)C(F)(F)F [Example 3, 1-(2(S)-aminobutyryl)-indoline-2(S) carboxylic acid (2-methylthioethyl)amide trifluoroacetate]	59.5 to 60.5		
CC[C@H](N)C(=O)N1c2cccc(C)c2CC1C(=O)NCC(F)(F)F.O=C(O)C(F)(F)F (mixture of isomers)	109 to 122		
CC[C@H](N)C(=O)N1c2ccc(O)cc2CC1C(=O)NCC(F)(F)F (mixture of isomers) [Example 6, 1-(2(S)-aminobutyryl)-5-hydroxyindoline-2(R/S)-carboxylic acid (2,2,2,-trifluoroethyl)amide trifluoroacetate]		2.8	Ki ([1]; Table 2, compounds of the invention, substrate AAF-Amc, read-out: Ki (nM), Inhibition of AAF-Amc Hydrolysis by Cerebral Membranes, compound of the invention): 2.8 nM
CC[C@H](N)C(=O)N1c2ccc(Cl)cc2C[C@H]1C(=O)NCCCl.O=C(O)C(F)(F)F [Example 2, 1-(2(S)-Aminobutyryl)-5-chloroindoline-2(S)-carboxylic acid 2-chloroethylamide trifluoroacetate]	80 to 88	1.7	
CCCCNC(=O)C1Cc2c(ccc(Cl)c2Cl)N1C(=O)[C@@H](N)CC.O=C(O)C(F)(F)F (mixture of isomers)	115 to 124		
CC[C@H](N)C(=O)N1c2cccc(F)c2CC1C(=O)NCC(F)(F)F.O=C(O)C(F)(F)F (mixture of isomers) [Example 8, 1-(2(S)-aminobutyryl)-4-fluoroindoline-2(R/S)-carboxylic acid (2,2,2-trifluoroethyl)amide trifluoroacetate] [listing 2 of 2 here]	57.5 to 58.5		
CC[C@H](N)C(=O)N1c2cccc(OC)c2C[C@H]1C(=O)NCC(F)(F)F.O=C(O)C(F)(F)F	125 to 149		
CCCCNC(=O)[C@@H]1Cc2cc(Cl)ccc2N1C(=O)[C@@H](N)CC [C.C.1, 1-(2(S)-aminobutyryl)-5-chloroindoline-2(S)-carboxylic acid n-butylamide, reference compound]			Ki [1, 3]: 2.5 nM
CC[C@H](N)C(=O)C1c2c(ccc3ccccc23)N[C@@H]1C(=O)NCC(F)(F)F.O=C(O)C(F)(F)F (stereo partly shown)	64 to 78		
